Assay results from US10710994B2, “Oxadiazole transient receptor potential channel inhibitors” (Genentech, Inc., priority 2018, dated 2020).
Where two headings read alike, the source gives them in different places.

Target: human TRPA1 channel (Homo sapiens (Human), UniProt O75762)
Test: hTRPA1 CHO Ca2+ FLIPR Tetra assay: block of cinnamaldehyde induced calcium influx
Format: cell-based
Conditions: CHO cells expressing TRPA1, Hill coefficient fixed to 1.5
How it was run: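 TRPA1-expressing CHO cells loaded with calcium indicator dye (1 h 37° C, then 15 min room temperature) in HBSS/20 mM HEPES pH 7.4/0.02% BSA. IC50 from fits with fixed Hill coefficient.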

[1] = hTRPA1 IC50 90 min, 90 minutes incubation with compound before cinnamaldehyde (about EC80)
[2] = read-out: hTRPA1 IC50 10 min, 10 minutes incubation with compound before cinnamaldehyde (about EC80)
[3] = read-out: hTRPA1 IC50 90 min, 90 minutes incubation with compound before cinnamaldehyde (about EC80)
[4] = hTRPA1 IC50 10 min, 10 minutes incubation with compound before cinnamaldehyde (about EC80)

Chain of human TRPA1 channel (O75762 whole entry): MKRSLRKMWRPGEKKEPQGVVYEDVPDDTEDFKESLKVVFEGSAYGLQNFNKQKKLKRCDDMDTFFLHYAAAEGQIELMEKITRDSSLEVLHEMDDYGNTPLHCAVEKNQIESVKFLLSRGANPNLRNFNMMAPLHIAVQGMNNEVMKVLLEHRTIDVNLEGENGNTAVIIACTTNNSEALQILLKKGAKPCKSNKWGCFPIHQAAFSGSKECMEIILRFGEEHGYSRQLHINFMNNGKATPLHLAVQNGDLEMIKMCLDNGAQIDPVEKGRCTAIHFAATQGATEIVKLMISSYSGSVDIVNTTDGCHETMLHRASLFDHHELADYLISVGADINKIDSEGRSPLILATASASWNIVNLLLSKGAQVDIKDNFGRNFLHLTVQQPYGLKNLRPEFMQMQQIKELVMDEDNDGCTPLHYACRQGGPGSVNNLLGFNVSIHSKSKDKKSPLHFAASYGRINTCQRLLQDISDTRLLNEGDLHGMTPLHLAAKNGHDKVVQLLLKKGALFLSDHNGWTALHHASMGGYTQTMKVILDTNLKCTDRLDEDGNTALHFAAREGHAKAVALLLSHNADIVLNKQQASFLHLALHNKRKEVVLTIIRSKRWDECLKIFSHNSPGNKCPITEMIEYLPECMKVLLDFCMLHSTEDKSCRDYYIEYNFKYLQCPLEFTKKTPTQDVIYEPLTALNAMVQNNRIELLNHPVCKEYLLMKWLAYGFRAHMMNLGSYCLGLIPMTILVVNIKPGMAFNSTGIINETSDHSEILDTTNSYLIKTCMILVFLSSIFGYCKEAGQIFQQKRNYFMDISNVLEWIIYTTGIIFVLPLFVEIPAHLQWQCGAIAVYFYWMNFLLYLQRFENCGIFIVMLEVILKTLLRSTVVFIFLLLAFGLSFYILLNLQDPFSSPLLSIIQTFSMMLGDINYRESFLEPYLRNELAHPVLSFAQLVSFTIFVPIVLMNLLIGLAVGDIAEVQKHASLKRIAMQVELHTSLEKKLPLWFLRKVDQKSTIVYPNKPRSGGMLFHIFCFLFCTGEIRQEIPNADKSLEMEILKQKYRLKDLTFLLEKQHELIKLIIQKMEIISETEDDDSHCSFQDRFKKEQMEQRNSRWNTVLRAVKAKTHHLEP

| SMILES | IC50 [1] | IC50 [2] | IC50 [3] | IC50 [4] |
| --- | --- | --- | --- | --- |
| Cc1nc(N2CCN(C)CC2)n2ncn(Cc3nc([C@@H]4CO[C@@H](c5ccc(Cl)cc5)C4)no3)c(=O)c12 (racemic) [Example 92, 5-methyl-7-(4-methylpiperazin-1-yl)-3-[[3-[rac-(3R,5R)-5-(4-chlorophenyl)tetrahydro-furan-3-yl]-1,2,4-oxadiazol-5-yl]methyl]imidazo[5,1-f][1,2,4]triazin-4-one] | 170 nM |  |  |  |
| O=c1c2cccc(=O)n2ccn1Cc1nc([C@@H]2CO[C@@H](c3ccc(F)cc3)C2)no1 (racemic) [Example 94, 2-[[3-[rac-(3R,5R)-5-(4-fluorophenyl)tetrahydro-furan-3-yl]-1,2,4-oxadiazol-5-yl]methyl]pyrido[1,2-a] pyrazine-1,6-dione] | 12 nM |  |  |  |
| Cc1ccnc2nc(N)n(Cc3nc([C@@H]4CO[C@@H](c5ccc(F)cc5)C4)no3)c(=O)c12 [Example 133, 2-amino-3-((3-((3R,5R)-5-(4-fluorophenyl)tetra-hydrofuran-3-yl)-1,2,4-oxadiazol-5-yl)methyl)-5-methylpyrido[2,3-d] pyrimidin-4(3H)-one] |  | 13.4 nM | 1.4 nM |  |
| Cc1cccc2nn(Cc3nc([C@@H]4CO[C@@H](c5ccc(Cl)cc5)C4)no3)c(=O)n12 (racemic) [Example 100, 5-methyl-2-[[3-[rac-(3R,5R)-5-(4-chlorophenyl)tetrahydro-furan-3-yl]-1,2,4-oxadiazol-5-yl]methyl]-[1,2,4]triazolo[4,3-a] pyridin-3-one] | 140 nM |  |  | 153 nM |
| Cc1nc(N(C)C)n2ncn(Cc3nc([C@@H]4CO[C@@H](c5ccc(Cl)cc5)C4)no3)c(=O)c12 (racemic) [Example 105, 7-(dimethylamino)-5-methyl-3-[[3-[rac-(3R,5R)-5-(4-chlorophenyl)tetrahydro-furan-3-yl]-1,2,4-oxadiazol-5-yl]methyl]imidazo[5,1-f][1,2,4]triazin-4-one] | 59 nM |  |  | 42 nM |
| Cn1cncc1C(=O)NCc1nc([C@H]2CO[C@H](c3ccc(Cl)cc3)C2)no1 (racemic) [Example 102, 3-methyl-N-[[3-[rac-(3S,5S)-5-(4-chlorophenyl)tetrahydro-furan-3-yl]-1,2,4-oxadiazol-5-yl]methyl]imidazole-4-carboxamide] | 23 nM |  |  | 38.9 nM |
| Cn1cnc2ncn(Cc3nc([C@@H]4CO[C@@H](c5cc(F)cc(F)c5)C4)no3)c(=O)c21 [Example 34, 1-((3-((3R,5R)-5-(3,5-difluorophenyl)tetra-hydrofuran-3-yl)-1,2,4-oxadiazol-5-yl)methyl)-7-methyl-1,7-dihydro-6H-purin-6-one] |  | 63.5 nM | 28 nM |  |
| Cc1ccc([C@H]2C[C@H](c3noc(Cn4cnc5ncn(C)c5c4=O)n3)CO2)cc1 [Example 27, 7-methyl-1-((3-((3R,5R)-5-(p-tolyl)tetrahydrofuran-3-yl)-1,2,4-oxadiazol-5-yl)methyl)-1,7-dihydro-6H-purin-6-one] |  | 16.1 nM | 5.7 nM |  |
| Cn1cnc2ncn(Cc3nc([C@@H]4CO[C@@H](c5ccc(Br)cc5)C4)no3)c(=O)c21 [Example 29, 1-((3-((3R,5R)-5-(4-bromophenyl)tetra-hydrofuran-3-yl)-1,2,4-oxadiazol-5-yl)methyl)-7-methyl-1,7-dihydro-6H-purin-6-one] |  | 7.83 nM | 1.8 nM |  |
| Nc1nc2cccnc2n1Cc1nc([C@@H]2CO[C@@H](c3ccc(Cl)cc3)C2)no1 [Example 155, 3-[[3-[(3R,5R)-5-(4-chlorophenyl)tetrahydro-furan-3-yl]-1,2,4-oxadiazol-5-yl]methyl]imidazo[4,5-b]pyridin-2-amine] |  | 10.3 nM | 7.5 nM |  |
| O=c1c2ccnnc2ncn1Cc1nc([C@@H]2CO[C@@H](c3ccc(F)cc3)C2)no1 [Example 103, 6-[[3-[(3R,5R)-5-(4-fluorophenyl)tetrahydro-furan-3-yl]-1,2,4-oxadiazol-5-yl]methyl]pyrimido[4,5-c]pyridazin-5-one] |  | 71.7 nM | 89 nM |  |
| Cn1cnc2nc(N)n(Cc3nc([C@@H]4CO[C@@H](c5ccc(F)cc5)C4)no3)c(=O)c21 [Example 144, 2-amino-1-((3-((3R,5R)-5-(4-fluorophenyl)tetrahydro-furan-3-yl)-1,2,4-oxadiazol-5-yl)methyl)-7-methyl-1,7-dihydro-6H-purin-6-one] |  | 56.9 nM | 6.6 nM |  |
| Cn1cnc2ncn(Cc3nc([C@@H]4CO[C@@H](c5ccc(C6CC6)cc5)C4)no3)c(=O)c21 [Example 68, 1-((3-((3R,5R)-5-(4-cyclopropylphenyl)tetrahydrofuran-3-yl)-1,2,4-oxadiazol-5-yl)methyl)-7-methyl-1,7-dihydro-6H-purin-6-one] |  | 46 nM | 27 nM |  |
| Nc1nc2ncsc2c(=O)n1Cc1nc([C@@H]2CO[C@@H](c3ccc(F)cc3)C2)no1 (racemic) [Example 154, 5-amino-6-[[3-[rac-(3R,5R)-5-(4-fluorophenyl)tetrahydro-furan-3-yl]-1,2,4-oxadiazol-5-yl]methyl]thiazolo[4,5-d]pyrimidin-7-one] | 2.3 nM |  |  |  |
| O=c1c2ccncc2ncn1Cc1nc([C@@H]2CO[C@@H](c3ccc(Cl)cc3)C2)no1 [Example 45, 3-((3-((3R,5R)-5-(4-chlorophenyl)tetrahydro-furan-3-yl)-1,2,4-oxadiazol-5-yl)methyl)pyrido[3,4-d] pyrimidin-4(3H)-one] |  | 19.3 nM | 7.8 nM |  |
| Cc1nc2nc(C)n(C)c2c(=O)n1Cc1nc([C@@H]2CO[C@@H](c3ccc(Cl)cc3)C2)no1 [Example 109, 1-((3-((3R,5R)-5-(4-chlorophenyl)tetrahydro-furan-3-yl)-1,2,4-oxadiazol-5-yl)methyl)-2,7,8-trimethyl-1,7-dihydro-6H-purin-6-one] |  | 85 nM | 62 nM |  |
| Cn1cnc2ncn(Cc3nc([C@@H]4CO[C@@H](c5ccc(C(F)(F)F)cc5)C4)no3)c(=O)c21 [Example 38, 7-methyl-1-((3-((3R,5R)-5-(4-(trifluoromethyl)phenyl)tetrahydrofuran-3-yl)-1,2,4-oxadiazol-5-yl)methyl)-1,7-dihydro-6H-purin-6-one] |  | 46.4 nM | 29 nM |  |
| Cc1nc2nc(N)n(C)c2c(=O)n1Cc1nc([C@@H]2CO[C@@H](c3ccc(Cl)cc3)C2)no1 (racemic) [Example 113, 8-amino-2,7-dimethyl-1-[[3-[rac-(3R,5R)-5-(4-chlorophenyl)tetrahydro-furan-3-yl]-1,2,4-oxadiazol-5-yl]methyl] purin-6-one] | 14 nM |  |  | 123 nM |
| NC(=O)c1ccc2c(=O)n(Cc3nc([C@@H]4CO[C@@H](c5ccc(Cl)cc5)C4)no3)cnc2n1 [Example 77, 3-((3-((3R,5R)-5-(4-chlorophenyl)tetrahydro-furan-3-yl)-1,2,4-oxadiazol-5-yl)methyl)-4-oxo-3,4-dihydropyrido[2,3-d] pyrimidine-7-carboxamide] |  |  | 66 nM |  |
| Cn1cnc2ncn(Cc3nc([C@@H]4CO[C@@H](c5ccc(F)cc5)C4)no3)c2c1=O [Example 69, 7-((3-((3R,5R)-5-(4-fluorophenyl)tetrahydro-furan-3-yl)-1,2,4-oxadiazol-5-yl)methyl)-1-methyl-1,7-dihydro-6H-purin-6-one] |  | 59.5 nM | 34 nM |  |
| Cc1c(N)nn2ncn(Cc3nc([C@@H]4CO[C@@H](c5ccc(F)cc5)C4)no3)c(=O)c12 [Example 145, 6-amino-3-((3-((3R,5R)-5-(4-fluorophenyl)tetrahydro-furan-3-yl)-1,2,4-oxadiazol-5-yl)methyl)-5-methylpyrazolo[5,1-f][1,2,4]triazin-4(3H)-one] |  | 9.28 nM | 46 nM |  |
| O=c1c2cccnc2ncn1Cc1nc([C@@H]2CO[C@@H](c3ccc(F)cc3)C2)no1 [Example 147, 3-((3-((3R,5R)-5-(4-fluorophenyl)tetrahydro-furan-3-yl)-1,2,4-oxadiazol-5-yl)methyl)pyrido[2,3-d]pyrimidin-4(3H)-one] |  | 107 nM | 82 nM |  |
| Cn1cnc2ncn(Cc3nc([C@@H]4CO[C@@H](c5cccc(F)c5)C4)no3)c(=O)c21 [Example 10, 1-((3-((3R,5R)-5-(3-fluorophenyl)tetra-hydrofuran-3-yl)-1,2,4-oxadiazol-5-yl)methyl)-7-methyl-1,7-dihydro-6H-purin-6-one] |  | 27.4 nM | 17 nM |  |
| Cc1ccc(=O)n2ccn(Cc3nc([C@@H]4CO[C@@H](c5ccc(Cl)cc5)C4)no3)c(=O)c12 [Example 49, 2-((3-((3R,5R)-5-(4-chlorophenyl)tetrahydro-furan-3-yl)-1,2,4-oxadiazol-5-yl)methyl)-9-methyl-2H-pyrido[1,2-a]pyrazine-1,6-dione] |  |  | 4.3 nM |  |
| Cn1cnc2ncn(Cc3nc([C@@H]4CO[C@@H](c5ccccc5)C4)no3)c(=O)c21 [Example 13, 7-methyl-1-((3-((3R,5R)-5-phenyltetrahydrofuran-3-yl)-1,2,4-oxadiazol-5-yl)methyl)-1,7-dihydro-6H-purin-6-one] |  | 82.3 nM | 33 nM |  |
